Results: article PMC5218480 (PLoS ONE, 2017)

Test system: MV-4-11 cells
Experiment: Gene expression microarray analysis (Affymetrix PrimeView) and GSEA
Type: cell-based, human
Set-up: RFU PODN (11730768_x_at) / Fold change /veh PODN (11730768_x_at) / RFU LINC00158 (11744669_a_at) / Fold change /veh LINC00158 (11744669_a_at) / RFU DUSP10 (11751237_a_at) / Fold change /veh DUSP10 (11751237_a_at) / RFU ID3 (11757404_x_at) / Fold change /veh ID3 (11757404_x_at) / RFU PLEKHG5 (11737974_s_at) / Fold change /veh PLEKHG5 (11737974_s_at) / RFU LRRC4B (11730491_at) / Fold change /veh LRRC4B (11730491_at) / RFU GIMAP4 (11747438_a_at) / Fold change /veh GIMAP4 (11747438_a_at) / RFU KRT8 (11758183_x_at) / Fold change /veh KRT8 (11758183_x_at) / RFU CNN1 (11734310_a_at) / Fold change /veh CNN1 (11734310_a_at) / RFU VPS37D (11726825_at) / Fold change /veh VPS37D (11726825_at) / RFU C10orf10 (11716522_x_at) / Fold change /veh C10orf10 (11716522_x_at) / RFU KIR2DL2 /// KIR2DL4 /// KIR2DL5A /// KIR2DL5B /// KIR2DS1 /// KIR2DS2 /// KIR2DS3 /// KIR2DS4 /// KIR3DL3 /// KIR3DL3 /// KIR3DS1 (11738374_at) / Fold change /veh KIR2DL2 /// KIR2DL4 /// KIR2DL5A /// KIR2DL5B /// KIR2DS1 /// KIR2DS2 /// KIR2DS3 /// KIR2DS4 /// KIR3DL3 /// KIR3DL3 /// KIR3DS1 (11738374_at) / RFU C1QL1 (11718748_at) / Fold change /veh C1QL1 (11718748_at) / RFU TMPRSS4 (11747572_a_at) / Fold change /veh TMPRSS4 (11747572_a_at) / RFU HAMP (11756126_x_at) / Fold change /veh HAMP (11756126_x_at) / RFU RNFT2 (11725882_a_at) / Fold change /veh RNFT2 (11725882_a_at) / RFU NR4A2 (11747474_a_at) / Fold change /veh NR4A2 (11747474_a_at) / RFU ABCC12 (11746883_a_at) / Fold change /veh ABCC12 (11746883_a_at) / RFU TMEM136 (11760407_x_at) / Fold change /veh TMEM136 (11760407_x_at) / RFU CLDN22 /// WWC2 (11732394_at) / Fold change /veh CLDN22 /// WWC2 (11732394_at) / RFU HLA-DPB1 (11760878_x_at) / Fold change /veh HLA-DPB1 (11760878_x_at) / RFU SPINT1 (11716480_a_at) / Fold change /veh SPINT1 (11716480_a_at) / RFU GAP43 (11754022_s_at) / Fold change /veh GAP43 (11754022_s_at) / RFU A4GNT (11735810_at) / Fold change /veh A4GNT (11735810_at) / RFU PRB3 (11715151_x_at) / Fold change /veh PRB3 (11715151_x_at) / RFU TUBB4B (11761932_at) / Fold change /veh TUBB4B (11761932_at) / RFU CAPN14 (11732068_a_at) / Fold change /veh CAPN14 (11732068_a_at) / RFU TMCC2 (11721928_a_at) / Fold change /veh TMCC2 (11721928_a_at) / RFU IRGQ (11745062_a_at) / Fold change /veh IRGQ (11745062_a_at) / RFU FAM174B (11720279_a_at) / Fold change /veh FAM174B (11720279_a_at) / RFU TMPRSS4 (11748680_a_at) / Fold change /veh TMPRSS4 (11748680_a_at) / RFU FAM212B (11763350_a_at) / Fold change /veh FAM212B (11763350_a_at) / RFU PLEKHG5 (11743358_a_at) / Fold change /veh PLEKHG5 (11743358_a_at) / RFU ZSCAN30 (11745921_a_at) / Fold change /veh ZSCAN30 (11745921_a_at) / RFU CMKLR1 (11741424_a_at) / Fold change /veh CMKLR1 (11741424_a_at) / RFU LOC101060620 /// MAPK8IP1 (11723275_at) / Fold change /veh LOC101060620 /// MAPK8IP1 (11723275_at) / RFU SPTSSB (11747773_x_at) / Fold change /veh SPTSSB (11747773_x_at) / RFU PRSS12 (11739890_at) / Fold change /veh PRSS12 (11739890_at) / RFU BIN1 (11741810_x_at) / Fold change /veh BIN1 (11741810_x_at) / RFU WNT11 (11732464_a_at) / Fold change /veh WNT11 (11732464_a_at) / RFU C10orf10 (11716521_a_at) / Fold change /veh C10orf10 (11716521_a_at) / RFU C5orf56 (11738089_at) / Fold change /veh C5orf56 (11738089_at) / RFU CYB561 (11721691_x_at) / Fold change /veh CYB561 (11721691_x_at) / RFU ANKRD19P (11752326_a_at) / Fold change /veh ANKRD19P (11752326_a_at) / RFU OR2T12 /// OR2T33 /// OR2T8 (11738714_s_at) / Fold change /veh OR2T12 /// OR2T33 /// OR2T8 (11738714_s_at) / RFU VCAN (11748164_a_at) / Fold change /veh VCAN (11748164_a_at) / RFU JSRP1 (11732532_at) / Fold change /veh JSRP1 (11732532_at) / RFU KRTAP10-11 (11738290_x_at) / Fold change /veh KRTAP10-11 (11738290_x_at) / RFU MYO3A (11730013_a_at) / Fold change /veh MYO3A (11730013_a_at) / RFU EBF3 (11725865_a_at) / Fold change /veh EBF3 (11725865_a_at) / RFU CAMK2N1 (11719241_x_at) / Fold change /veh CAMK2N1 (11719241_x_at) / RFU C5orf56 (11738088_a_at) / Fold change /veh C5orf56 (11738088_a_at) / RFU OLFML3 (11715873_a_at) / Fold change /veh OLFML3 (11715873_a_at) / RFU LOC100653217 /// NTM (11731650_a_at) / Fold change /veh LOC100653217 /// NTM (11731650_a_at) / RFU MAPK11 (11762145_a_at) / Fold change /veh MAPK11 (11762145_a_at) / RFU FIZ1 (11724087_x_at) / Fold change /veh FIZ1 (11724087_x_at) / RFU OASL (11726364_x_at) / Fold change /veh OASL (11726364_x_at) / RFU SOX15 (11748057_x_at) / Fold change /veh SOX15 (11748057_x_at) / RFU CD79A (11719716_a_at) / Fold change /veh CD79A (11719716_a_at) / RFU HIST1H1D (11736915_at) / Fold change /veh HIST1H1D (11736915_at) / RFU CASKIN2 (11723855_a_at) / Fold change /veh CASKIN2 (11723855_a_at) / RFU LOC730098 (11760151_x_at) / Fold change /veh LOC730098 (11760151_x_at) / RFU OR4N2 (11742367_at) / Fold change /veh OR4N2 (11742367_at) / RFU PRRT2 (11749266_a_at) / Fold change /veh PRRT2 (11749266_a_at) / RFU SNX32 (11753110_a_at) / Fold change /veh SNX32 (11753110_a_at) / RFU CDHR5 (11726645_a_at) / Fold change /veh CDHR5 (11726645_a_at) / RFU RCAN1 (11760418_a_at) / Fold change /veh RCAN1 (11760418_a_at) / RFU FAM167A (11723789_a_at) / Fold change /veh FAM167A (11723789_a_at) / RFU FAM26E (11764081_at) / Fold change /veh FAM26E (11764081_at) / RFU ISYNA1 (11749810_s_at) / Fold change /veh ISYNA1 (11749810_s_at) / RFU ACY1 (11761880_at) / Fold change /veh ACY1 (11761880_at) / RFU 11764098_at / Fold change /veh 11764098_at / RFU SAMD14 (11745864_x_at) / Fold change /veh SAMD14 (11745864_x_at) / RFU NPB (11741838_a_at) / Fold change /veh NPB (11741838_a_at) / RFU TMPRSS6 (11731388_a_at) / Fold change /veh TMPRSS6 (11731388_a_at) / RFU KRTAP10-2 (11738614_at) / Fold change /veh KRTAP10-2 (11738614_at) / RFU ARHGAP8 /// PRR5-ARHGAP8 (11727945_x_at) / Fold change /veh ARHGAP8 /// PRR5-ARHGAP8 (11727945_x_at) / RFU KRTAP5-7 /// NADSYN1 (11734609_at) / Fold change /veh KRTAP5-7 /// NADSYN1 (11734609_at) / RFU RASL12 (11751679_a_at) / Fold change /veh RASL12 (11751679_a_at) / RFU CDKN2B (11736163_a_at) / Fold change /veh CDKN2B (11736163_a_at) / RFU PRF1 (11729649_at) / Fold change /veh PRF1 (11729649_at) / RFU, ZNF638 /// ZNF638-IT1 / Fold change vs veh, ZNF638 /// ZNF638-IT1 / RFU, PANK3 / Fold change vs veh, PANK3 / RFU, SH3YL1 / Fold change vs veh, SH3YL1 / RFU, ZEB2 / Fold change vs veh, ZEB2 / RFU, NRIP1 / Fold change vs veh, NRIP1 / RFU, PTTG1IP / Fold change vs veh, PTTG1IP / RFU, CAPN2 / Fold change vs veh, CAPN2 / RFU, MED14 / Fold change vs veh, MED14 / RFU, SNORA58 / Fold change vs veh, SNORA58 / RFU, C1orf63 / Fold change vs veh, C1orf63 / RFU, LRRFIP1 / Fold change vs veh, LRRFIP1 / RFU, NDUFAF7 / Fold change vs veh, NDUFAF7 / RFU, SLC12A2 / Fold change vs veh, SLC12A2 / RFU, IBTK / Fold change vs veh, IBTK / RFU, ESF1 / Fold change vs veh, ESF1 / Fold change vs veh, TMEM50B / RFU, TAOK1 / Fold change vs veh, TAOK1 / RFU, ACBD3 / Fold change vs veh, ACBD3 / RFU, TMA16 / Fold change vs veh, TMA16 / RFU, RWDD3 / Fold change vs veh, RWDD3 / RFU, BCAT1 / Fold change vs veh, BCAT1 / RFU, EDEM3 / Fold change vs veh, EDEM3 / RFU, TMEM33 / Fold change vs veh, TMEM33 / RFU, WDR75 / Fold change vs veh, WDR75 / RFU, AHCTF1 / Fold change vs veh, AHCTF1 / RFU, TFRC / Fold change vs veh, TFRC / RFU, ZDHHC17 / Fold change vs veh, ZDHHC17 / RFU, NOM1 / Fold change vs veh, NOM1 / RFU, ARL8B / Fold change vs veh, ARL8B / RFU, ZBTB11 / Fold change vs veh, ZBTB11 / RFU, TAMM41 / Fold change vs veh, TAMM41 / RFU, KIAA1704 /// LOC100996395 / Fold change vs veh, KIAA1704 /// LOC100996395 / RFU, ING1 / Fold change vs veh, ING1 / RFU, TRMT61B / Fold change vs veh, TRMT61B / RFU, FUBP3 / Fold change vs veh, FUBP3 / RFU, TP53 / Fold change vs veh, TP53 / RFU, TNKS2 / Fold change vs veh, TNKS2 / RFU, ZFP14 / Fold change vs veh, ZFP14 / RFU, ACTR2 / Fold change vs veh, ACTR2 / RFU, PPP3R1 / Fold change vs veh, PPP3R1 / RFU, PIK3R1 / Fold change vs veh, PIK3R1 / RFU, HNRNPA1 / Fold change vs veh, HNRNPA1 / RFU, RNF170 / Fold change vs veh, RNF170 / RFU, ZNF28 / Fold change vs veh, ZNF28 / RFU, RNGTT / Fold change vs veh, RNGTT / RFU, OGT / Fold change vs veh, OGT / RFU, BRD1 / Fold change vs veh, BRD1 / RFU, MARS / Fold change vs veh, MARS / RFU, ZNF655 / Fold change vs veh, ZNF655 / RFU, FAHD1 / Fold change vs veh, FAHD1 / RFU, BDP1 / Fold change vs veh, BDP1 / RFU, LRRCC1 / Fold change vs veh, LRRCC1 / RFU, ARID1A / Fold change vs veh, ARID1A / RFU, ZNF146 / Fold change vs veh, ZNF146 / RFU, ZNF330 / Fold change vs veh, ZNF330 / RFU, GPN3 / Fold change vs veh, GPN3 / RFU, C9orf123 / Fold change vs veh, C9orf123 / RFU, N4BP2L2 / Fold change vs veh, N4BP2L2 / RFU, ARFIP1 / Fold change vs veh, ARFIP1 / RFU, FAM179B / Fold change vs veh, FAM179B / RFU, BCL10 / Fold change vs veh, BCL10 / RFU, UHRF1BP1L / Fold change vs veh, UHRF1BP1L / RFU, BET1 / Fold change vs veh, BET1 / RFU, CNOT2 / Fold change vs veh, CNOT2 / RFU, ZNF268 / Fold change vs veh, ZNF268 / Fold change vs veh, ZNF507 / RFU, DGCR2 / Fold change vs veh, DGCR2 / RFU, WDSUB1 / Fold change vs veh, WDSUB1 / Fold change vs veh, HSP90B1 /// MIR3652 / RFU, ADSS / Fold change vs veh, ADSS / RFU, GK / Fold change vs veh, GK / RFU, ZNF148 / Fold change vs veh, ZNF148 / RFU, TAF9 / Fold change vs veh, TAF9 / RFU, SLC1A5 / Fold change vs veh, SLC1A5 / RFU, SLMO2 / Fold change vs veh, SLMO2 / RFU, ABCC4 / Fold change vs veh, ABCC4 / RFU, LOC101060439 /// RAP1B / Fold change vs veh, LOC101060439 /// RAP1B / RFU, RFX7 / Fold change vs veh, RFX7 / RFU, GTPBP10 / Fold change vs veh, GTPBP10 / RFU, CNEP1R1 / Fold change vs veh, CNEP1R1 / RFU, BIVM-ERCC5 /// ERCC5 / Fold change vs veh, BIVM-ERCC5 /// ERCC5 / RFU, ILF3 / Fold change vs veh, ILF3 / RFU 11762660_at / Fold change /veh 11762660_at / RFU VCAN (11757783_s_at) / Fold change /veh VCAN (11757783_s_at) / RFU DDX43 (11728927_at) / Fold change /veh DDX43 (11728927_at) / RFU KRT8 (11758188_x_at) / Fold change /veh KRT8 (11758188_x_at) / RFU NKD1 (11759106_at) / Fold change /veh NKD1 (11759106_at) / RFU SRD5A1 (11742802_a_at) / Fold change /veh SRD5A1 (11742802_a_at) / RFU TPSAB1 /// TPSB2 (11721975_s_at) / Fold change /veh TPSAB1 /// TPSB2 (11721975_s_at) / RFU GSTM3 (11746129_a_at) / Fold change /veh GSTM3 (11746129_a_at) / RFU IL23R (11737362_x_at) / Fold change /veh IL23R (11737362_x_at) / RFU TMEM51 (11727254_a_at) / Fold change /veh TMEM51 (11727254_a_at) / RFU PIWIL2 (11732686_x_at) / Fold change /veh PIWIL2 (11732686_x_at) / RFU ORM1 (11744905_x_at) / Fold change /veh ORM1 (11744905_x_at) / RFU CCDC152 (11743942_at) / Fold change /veh CCDC152 (11743942_at) / RFU ECM1 (11717891_a_at) / Fold change /veh ECM1 (11717891_a_at) / RFU IL23R (11748794_a_at) / Fold change /veh IL23R (11748794_a_at) / RFU TNFAIP8L3 (11732012_x_at) / Fold change /veh TNFAIP8L3 (11732012_x_at) / RFU MBOAT4 (11741988_at) / Fold change /veh MBOAT4 (11741988_at) / RFU 11764193_at / Fold change /veh 11764193_at / RFU TMEM53 (11763286_at) / Fold change /veh TMEM53 (11763286_at) / RFU MAGEB2 (11727129_at) / Fold change /veh MAGEB2 (11727129_at) / RFU TMEM200A (11744735_a_at) / Fold change /veh TMEM200A (11744735_a_at) / RFU CCDC152 (11751479_a_at) / Fold change /veh CCDC152 (11751479_a_at) / RFU FAM211A (11726209_a_at) / Fold change /veh FAM211A (11726209_a_at) / RFU RGS16 (11746705_a_at) / Fold change /veh RGS16 (11746705_a_at) / RFU VCAN (11755009_s_at) / Fold change /veh VCAN (11755009_s_at) / RFU RHOB (11743442_s_at) / Fold change /veh RHOB (11743442_s_at) / RFU RGS16 (11720943_a_at) / Fold change /veh RGS16 (11720943_a_at) / RFU RGS16 (11720944_at) / Fold change /veh RGS16 (11720944_at) / RFU, VPS4B / Fold change vs veh, VPS4B / RFU, CREB1 / Fold change vs veh, CREB1 / RFU, DNAJC13 / Fold change vs veh, DNAJC13 / RFU, GNAQ / Fold change vs veh, GNAQ / RFU, CDK5R1 / Fold change vs veh, CDK5R1 / RFU, ZRANB3 / Fold change vs veh, ZRANB3 / RFU, CUL4A / Fold change vs veh, CUL4A / RFU, CCNY / Fold change vs veh, CCNY / RFU, UFL1 / Fold change vs veh, UFL1 / RFU, COG3 / Fold change vs veh, COG3 / RFU, DIAPH2 / Fold change vs veh, DIAPH2 / RFU, SKA2 / Fold change vs veh, SKA2 / RFU, AFF3 / Fold change vs veh, AFF3 / RFU, LMF1 / Fold change vs veh, LMF1 / RFU, IPO11 / Fold change vs veh, IPO11 / RFU, DFFB / Fold change vs veh, DFFB / RFU, FOXP1 / Fold change vs veh, FOXP1 / RFU, CARD8 / Fold change vs veh, CARD8 / RFU, STRN3 / Fold change vs veh, STRN3 / RFU, ADK / Fold change vs veh, ADK / RFU, RASSF2 / Fold change vs veh, RASSF2 / RFU, WIPF1 / Fold change vs veh, WIPF1 / RFU, LARP1B / Fold change vs veh, LARP1B / RFU, RASA1 / Fold change vs veh, RASA1 / RFU, RB1 / Fold change vs veh, RB1 / RFU, PPFIA1 / Fold change vs veh, PPFIA1 / RFU, MAT2A / Fold change vs veh, MAT2A / RFU, CCT5 / Fold change vs veh, CCT5 / RFU, WDR92 / Fold change vs veh, WDR92 / RFU, CUX1 / Fold change vs veh, CUX1 / RFU, TTC7A / Fold change vs veh, TTC7A / RFU, TMEM135 / Fold change vs veh, TMEM135 / RFU, DEPTOR / Fold change vs veh, DEPTOR / RFU, CPM / Fold change vs veh, CPM / RFU, DNAJB6 / Fold change vs veh, DNAJB6 / RFU, CACNA2D3 / Fold change vs veh, CACNA2D3 / RFU, DTX4 / Fold change vs veh, DTX4 / RFU, TFCP2 / Fold change vs veh, TFCP2 / RFU, GMCL1 /// GMCL1P1 / Fold change vs veh, GMCL1 /// GMCL1P1 / RFU, AEBP2 / Fold change vs veh, AEBP2 / RFU, SNHG1 /// SNORD22 /// SNORD25 /// SNORD26 /// SNORD27 /// SNORD28 /// SNORD29 /// SNORD31 / Fold change vs veh, SNHG1 /// SNORD22 /// SNORD25 /// SNORD26 /// SNORD27 /// SNORD28 /// SNORD29 /// SNORD31 / Fold change (Aza/veh), C12orf56 (ProbeSet 11735607_a_at) / Fold change (ACY-1035/veh), C12orf56 (ProbeSet 11735607_a_at) / Fold change (Aza/veh), FGFR1OP (ProbeSet 11751329_s_at) / Fold change (ACY-1035/veh), FGFR1OP (ProbeSet 11751329_s_at) / Fold change (Aza/veh), VPS36 (ProbeSet 11739960_a_at) / Fold change (ACY-1035/veh), VPS36 (ProbeSet 11739960_a_at) / RFU SYPL1 (11715823_x_at) / Fold change /veh SYPL1 (11715823_x_at) / RFU IGFBP7 (11715501_s_at) / Fold change /veh IGFBP7 (11715501_s_at) / RFU REEP3 (11722064_at) / Fold change /veh REEP3 (11722064_at) / RFU IGLL1 (11728026_x_at) / Fold change /veh IGLL1 (11728026_x_at): dose or concentration left out as unconfirmed
Settings: MV-4-11 cells, 48 hours

Nc1ccc(-c2cccs2)cc1NC(=O)c1ccc2c(c1)cc(C1CC1)n2CCN1CCOCC1 [ACY-1035]
RFU TMEM136 (11760407_x_at): 15.13 RFU
